Assays:
[1] = target: T1, Orexin/Hypocretin receptor type 1 (Homo sapiens, UniProt O43613); assay: (§1) Radioligand Binding Assay I : For crude cell membrane preparations, cells (CHO, Chinese hamster ovary or HEK, human embryonic kidney) expressing human orexin 1 or human orexin 2 receptors, were washed with HEPES (10 mM, pH 7.5), scraped off the culture plates with the same buffer, and centrifuged at 4 C for 5 min at 2500 x g. The cell pellet was either stored at -80 C or used directly. Before the experiments, cell membranes were re-suspended in binding assay buffer (10 mM HEPES, 0.5% (w/v) bovine serum albumin, pH 7.5) by homogenisation with a Polytron homogeniser at 50 Hz for 20 s. In competition experiments, cell homogenates (150μΙ) were incubated in assay buffer (10 mM HEPES, pH 7.5, 0.5 % (w/v) bovine serum albumin, 5 mM MgCI2, 1 mMCaCI2, and tween 0.05%) for 1 h at room temperature with about 100 pM of the radioligand ([125l]orexin A, 2100 Ci/mmole, 50 μΙ), and with various concentrations of compounds of the invention (50 μΙ) in triplicates.
T1 sequence (O43613 whole entry): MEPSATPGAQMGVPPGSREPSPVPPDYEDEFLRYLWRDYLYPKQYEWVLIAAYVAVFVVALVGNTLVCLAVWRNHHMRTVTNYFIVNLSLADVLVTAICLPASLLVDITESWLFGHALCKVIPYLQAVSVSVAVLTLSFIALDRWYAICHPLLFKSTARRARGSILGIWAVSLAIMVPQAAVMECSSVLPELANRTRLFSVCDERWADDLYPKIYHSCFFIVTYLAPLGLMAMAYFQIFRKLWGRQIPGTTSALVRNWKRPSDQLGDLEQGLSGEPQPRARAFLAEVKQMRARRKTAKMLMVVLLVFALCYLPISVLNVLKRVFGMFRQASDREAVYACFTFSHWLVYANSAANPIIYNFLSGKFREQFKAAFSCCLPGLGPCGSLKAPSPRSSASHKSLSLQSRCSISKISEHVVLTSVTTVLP

Orexin receptor type 2 = target: T2, Orexin receptor type 2 (Homo sapiens, UniProt O43614); assay: as §1
T2 sequence (O43614 whole entry): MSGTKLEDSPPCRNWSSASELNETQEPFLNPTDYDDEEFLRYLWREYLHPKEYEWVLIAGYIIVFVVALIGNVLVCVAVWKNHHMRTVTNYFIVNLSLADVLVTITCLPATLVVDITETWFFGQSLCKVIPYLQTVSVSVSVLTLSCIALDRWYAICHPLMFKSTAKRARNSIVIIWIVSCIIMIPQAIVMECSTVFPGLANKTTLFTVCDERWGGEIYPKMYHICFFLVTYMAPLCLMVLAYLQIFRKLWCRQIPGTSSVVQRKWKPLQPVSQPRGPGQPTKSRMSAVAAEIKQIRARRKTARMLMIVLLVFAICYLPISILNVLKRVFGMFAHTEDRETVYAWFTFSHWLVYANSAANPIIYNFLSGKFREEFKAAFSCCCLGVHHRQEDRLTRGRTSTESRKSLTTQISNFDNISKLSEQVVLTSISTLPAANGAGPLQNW

Kd [1]: 114 nM
Kd (Orexin receptor type 2): 477 nM
SMILES: C[C@H](NC(=O)COc1cc(C(F)(F)F)c2c(-c3cccc(Cl)c3)nn(C)c2n1)c1ccccc1
